A word on the IC50: it is the midpoint of a concentration-inhibition curve. A word on the inhibition: it is how much of the control response was suppressed.

This note sets out measurements from article PMC8351955, “Targeting Mycobacterium tuberculosis response to environmental cues for the development of effective antitubercular drugs” (PLoS Biology, 2021).

What all share (type): cell-based, Mycobacterium tuberculosis
Assay [1] concerns CDC1551(rv2390c′::GFP) reporter Mtb strain, response to high [Cl−]. As to the kind of experiment: microbe, parasite or virus in culture. Conditions: for activity at 10 µM / activity at 20 µM / IC50: Mycobacterium tuberculosis; for activity at 10 µM / activity at 20 µM: 144 h; for activity at 20 µM: read-out: rv2390c'::GFP validation assay NPA% at 20 µM compound; for IC50: read-out: ShuminTan.MtbChloride.Validation: IC50; for ShuminTan.MtbChloride.Primary: NPI%: primary screen, Sheet2.

For assay [2], the system named is CDC1551(rv1405c′::GFP) reporter Mtb strain. As to the kind of experiment: microbe, parasite or virus in culture. Conditions: for IC50 / activity at 10 µM / activity at 20 µM: Mycobacterium tuberculosis; for IC50: read-out: ShuminTan.MtbChloride.Secondary: IC50; for activity at 10 µM: read-out: rv1405c'::GFP secondary assay NPA% at 10 µM compound; for activity at 20 µM: read-out: rv1405c'::GFP secondary assay NPA% at 20 µM compound.

The test system of assay [3] is Mtb growth in J774 murine macrophage-like cells. Kind of assay: microbe, parasite or virus in culture. Conditions: Mycobacterium tuberculosis; for IC50: J774 dose response 0.039-20 µM, read-out: ShuminTan.Mtb.Validation.Macrophage: IC50; for inhibition at 10 µM: read-out: J774 tertiary assay % inhibition compared to Rif at 10 µM compound.
Assay [4] deals with Mtb growth in J774 macrophage-like cells. Kind of assay: J774 infection in 96-well plates, mKO fluorescence 6 days post-infection. Conditions: for % Growth: Fig. 2D, DMSO = 100. The method, then: For J774 infection in 96-well plates, 1.8 × 10^5 J774 cells were seeded per well in 180 μl of J774 infection media 1 day prior to infection. On the day of the assay, log-phase Mtb constitutively expressing mKO were pelleted and resuspended in 1 ml basal uptake buffer, passed 6× through a tuberculin syringe with a 25 G × 5/8″ needle, then resuspended in J774 infection media to a final OD600 = 0.2. Media was removed from 96-well plate containing the J774 cells, with 140 μl of fresh J774 infection media added back to each well. A volume of 40 μl of the Mtb suspension at OD600 = 0.2 was added to each well, followed by addition of appropriate concentration of compound or DMSO in a 20-μl final volume in J774 infection media (compound final concentration 10 μM, rifampicin final concentration 5 μM, DMSO final concentration 0.1%/well). Bacterial mKO fluorescence was read immediately after infection using a Biotek Synergy Neo2 microplate reader (bottom read monochromator, excitation 543/10 nm, emission 565/10 nm), and again 6 days post-infection. Plates were kept in humidified ziplock bags in a 37°C, 5% CO2 incubator. mKO fluorescence in DMSO-treated control samples were defined as 100% growth, and fluorescence observed in treatment conditions calculated as a percentage from that set value.

[5] abbreviates: pH 6.4, […], DMSO positive control = 100%, read-out: Primary screen rv2390c'::GFP NPA%.
Where [6] appears, read: 10 µM, pH 6.4, 250 mM NaCl, 6 days, read-out: rv2390c'::GFP validation assay NPA% at 10 µM compound.
The mark [7] stands for this setting: J774, read-out: %inhibition compared to Rif in J774 at 20 uM.
Setting [8] is: J774, 144 h, read-out: J774 tertiary assay % inhibition compared to Rif at 20 µM compound.

The structures appear in SMILES notation. Values joined by “and” are separate entries in the source; they are usually repeats but may differ in a detail not shown here. Equal entries are not always repeated. Where two headings read alike, the source gives them in different places.

In the case of `Cc1ccc(NS(=O)(=O)c2ccc(C)c(F)c2)c(C(=O)O)c1` [RU-0273440, CC1=CC(C(O)=O)=C(NS(=O)(=O)C2=CC(F)=C(C)C=C2)C=C1], in assay [1], the “validation NPI at 10 uM” value stood at 60.2, the “validation NPI at 20 uM” value was 37.8, the IC50 is more than 20 µM and the “ShuminTan.MtbChloride.Primary: NPI%” value was 49.3142%. The activity at 10 µM in assay [1] (setting [5]) turned out to be 49.3%. For the same compound, the activity at 10 µM in assay [1] (setting [6]) amounted to 60.2 ± 7.2%. Besides, in assay [1] (pH 6.4, 250 mM NaCl, 6 days), the activity at 20 µM was 37.7 ± 5.2%. In assay [2], the “rv1405c assay NPI at 10 uM” value was 34, the “rv1405c assay NPI at 20 uM” value worked out at 23.8, the IC50 is less than 39.1 nM and the activity at 10 µM amounted to 33.8 ± 5.6%. Besides, the activity at 20 µM in assay [2] turned out to be 23.3 ± 4.7%. Besides, in assay [3] (setting [7]), the inhibition at 20 µM is 18.3%. Moreover, the IC50 in assay [3] is more than 20 µM.

As for `Cc1cccc(C)c1OC1CCN(c2cncc(C(N)=O)n2)CC1` [RU-0273431, CC1=CC=CC(C)=C1OC1CCN(CC1)C1=NC(=CN=C1)C(N)=O], the activity at 10 µM is 151% in assay [1] (setting [5]), 136 ± 9.1% in assay [1] (setting [6]) and 145 ± 16% in assay [2]. For the same compound, the activity at 20 µM worked out at 135 ± 17.7% in assay [1] (pH 6.4, 250 mM NaCl, 6 days) and 159 ± 12.5% in assay [2]. For the same compound, in assay [3] (J774, 144 h), the inhibition at 10 µM stood at 21.4 ± 7.4%. Besides, in assay [3] (setting [8]), the inhibition at 20 µM amounted to 34.9 ± 5.2%.

`O=C(Nc1cccc(C(F)(F)F)c1)c1n[nH]c(=O)c2ccccc12` [RU-0270645, FC(F)(F)C1=CC(NC(=O)C2=NNC(=O)C3=C2C=CC=C3)=CC=C1]: in assay [1], the “validation NPI at 10 uM” value is listed as 143, the “validation NPI at 20 uM” value is 153, the IC50 was less than 0.0391 µM and the “ShuminTan.MtbChloride.Primary: NPI%” value was 154.973%. Also, in assay [1] (setting [5]), the activity at 10 µM turned out to be 155%. For the same compound, in assay [1] (setting [6]), the activity at 10 µM is 142 ± 8.2%. The activity at 20 µM in assay [1] (pH 6.4, 250 mM NaCl, 6 days) stood at 152 ± 12.1%. In addition, in assay [2], the “rv1405c assay NPI at 10 uM” value amounted to 93.5, the “rv1405c assay NPI at 20 uM” value is reported as 138, the IC50 is less than 39.1 nM and the activity at 10 µM is 93.4 ± 11.5%. Also, the activity at 20 µM in assay [2] worked out at 139 ± 4.6%. For the same compound, the inhibition at 20 µM in assay [3] (setting [7]) was found to be 17.7%. Besides, the IC50 in assay [3] was more than 20 µM.

On to `CCOc1ccc(OCCN(CC)CC(O)c2ccc(C)cc2)cc1` (centres unmarked) [RU-0211290, CCOC1=CC=C(OCCN(CC)CC(O)C2=CC=C(C)C=C2)C=C1], for which, in assay [1], the “validation NPI at 10 uM” value was determined as 111, the “validation NPI at 20 uM” value is recorded as 146, the IC50 was less than 0.0391 µM and the “ShuminTan.MtbChloride.Primary: NPI%” value was 152.309%. In addition, the activity at 10 µM in assay [1] (setting [5]) amounted to 152%. In addition, the activity at 10 µM in assay [1] (setting [6]) worked out at 111 ± 8.9%. For the same compound, the activity at 20 µM in assay [1] (pH 6.4, 250 mM NaCl, 6 days) was found to be 145 ± 8.4%. Besides, in assay [2], the “rv1405c assay NPI at 10 uM” value is 103, the “rv1405c assay NPI at 20 uM” value is 129, the 50% inhibitory concentration (IC50) was less than 39.1 nM and the activity at 10 µM worked out at 102 ± 6.3%. Also, in assay [2], the activity at 20 µM was 128 ± 6%. The inhibition at 20 µM in assay [3] (setting [7]) was found to be 17.1%. Besides, in assay [3], the IC50 was more than 20 µM.

For the compound `N=C1SCC(=O)N1c1ncc(Cc2ccccc2)s1` [RU-0270641, N=C1SCC(=O)N1C1=NC=C(CC2=CC=CC=C2)S1], the activity at 10 µM amounted to 42.5% in assay [1] (setting [5]), 69 ± 5% in assay [1] (setting [6]) and 79.6 ± 11% in assay [2]. The activity at 20 µM in assay [1] (pH 6.4, 250 mM NaCl, 6 days) was 33.9 ± 6.5%; in assay [2] it was 110 ± 12.2%. For the same compound, in assay [3] (J774, 144 h), the inhibition at 10 µM was determined as 12.1 ± 10.5%. Also, in assay [3] (setting [8]), the inhibition at 20 µM is 28.8 ± 4.5%.

In the case of `CCc1nc(Cn2ccnc2-c2nc3c(s2)CCCC3)no1` [RU-0226010, CCC1=NC(CN2C=CN=C2C2=NC3=C(CCCC3)S2)=NO1], the activity at 10 µM in assay [1] (setting [5]) is 168%; in assay [1] (setting [6]), 125 ± 6.6%; in assay [2] it was 92.3 ± 12.5%. Further, the activity at 20 µM was 129 ± 4% in assay [1] (pH 6.4, 250 mM NaCl, 6 days) and 104 ± 23.1% in assay [2]. In assay [3] (setting [8]), the inhibition at 20 µM is 30.4 ± 2.4%.

Consider `CN(CC(O)c1ccccc1Cl)C1CCc2ccccc21` (centres unmarked) [RU-0271187, CN(CC(O)C1=C(Cl)C=CC=C1)C1CCC2=C1C=CC=C2], for which the activity at 10 µM worked out at 166% in assay [1] (setting [5]), 138 ± 7.4% in assay [1] (setting [6]) and 228 ± 8.7% in assay [2]. The activity at 20 µM came out at 207 ± 9.5% in assay [1] (pH 6.4, 250 mM NaCl, 6 days) and 461 ± 7.9% in assay [2]. In assay [3] (J774, 144 h), the inhibition at 10 µM was 4.8 ± 0.1%. Besides, the inhibition at 20 µM in assay [3] (setting [8]) amounted to 36.1 ± 0.1%.

As for `CO[C@H]1/C=C/O[C@@]2(C)Oc3c(C)c(O)c4c(O)c(c(/C=N/N5CCN(C)CC5)c(O)c4c3C2=O)NC(=O)/C(C)=C\C=C\[C@H](C)[C@H](O)[C@@H](C)[C@@H](O)[C@@H](C)[C@H](OC(C)=O)[C@@H]1C` [Rif, rifampicin, reference compound], the “% growth of Mtb in J774 cells, average” value in assay [4] (5 μM rifampicin, 6 days post-infection, DMSO = 100%, Fig 1H) amounted to 8.618%. Besides, the “% Growth” value in assay [4] (average of 4 replicates) is 10.744%; in assay [4] (individual replicates), 10.4241% and 10.7119% and 11.5524% and 10.2878%.

For the compound `O=C(Nc1ccc(OCC(F)(F)F)nc1)N1CCCCCCC1` [RU-0275323, FC(F)(F)COC1=NC=C(NC(=O)N2CCCCCCC2)C=C1], in assay [1], the “validation NPI at 10 uM” value turned out to be 88.4, the “validation NPI at 20 uM” value turned out to be 51.1, the IC50 turned out to be 13 µM and the “ShuminTan.MtbChloride.Primary: NPI%” value was 45.0537%. Also, in assay [1] (setting [5]), the activity at 10 µM came out at 45.1%. For the same compound, in assay [1] (setting [6]), the activity at 10 µM is 87.5 ± 8%. In assay [1] (pH 6.4, 250 mM NaCl, 6 days), the activity at 20 µM stood at 49.4 ± 7.1%. Further, in assay [2], the “rv1405c assay NPI at 10 uM” value turned out to be 111, the “rv1405c assay NPI at 20 uM” value is 112, the concentration for half-maximal inhibition (IC50) is less than 39.1 nM and the activity at 10 µM stood at 111 ± 5.5%. In addition, the activity at 20 µM in assay [2] is 112 ± 10.6%. Besides, the inhibition at 20 µM in assay [3] (setting [7]) came out at 15.8%. Also, the IC50 in assay [3] is more than 20 µM.
